Assay results: ChEMBL document CHEMBL1909046, “DrugMatrix in vitro pharmacology data”
*1 amine or outer side, *2 acyl side, *3 side chain or, on linkers, in order; H or OH if unused. Where a SMILES comes first, the peptide text is derived from it. Bridges are numbered along the chain shown (N, C = ends). Roman numbers before positions name the chains, in order. [ ]: non-standard residue; d: D form. Actinocin(1to9) = Cc1c2oc3c(C)ccc(C(=O)[*:2])c3nc-2c(C(=O)[*:1])c(N)c1=O; NMeV = CN[C@H](C(=O)O)C(C)C; Sar = CNCC(=O)O

Key:
[1] = DRUGMATRIX: beta-Lactamase enzyme inhibition (substrate: Nitrocefin); parameters: species or system Bacillus cereus; conditions: Not Active = under 50% inhibition at 10 µM
[2] = target: T1, Endothelin-1 receptor (Homo sapiens, UniProt P25101); assay type: cell membranes, CHO-K1, Membrane; conditions: cho-k1; further: in other assays of this panel Not Active means under 50% inhibition at 10 µM
T1 sequence (P25101 whole entry): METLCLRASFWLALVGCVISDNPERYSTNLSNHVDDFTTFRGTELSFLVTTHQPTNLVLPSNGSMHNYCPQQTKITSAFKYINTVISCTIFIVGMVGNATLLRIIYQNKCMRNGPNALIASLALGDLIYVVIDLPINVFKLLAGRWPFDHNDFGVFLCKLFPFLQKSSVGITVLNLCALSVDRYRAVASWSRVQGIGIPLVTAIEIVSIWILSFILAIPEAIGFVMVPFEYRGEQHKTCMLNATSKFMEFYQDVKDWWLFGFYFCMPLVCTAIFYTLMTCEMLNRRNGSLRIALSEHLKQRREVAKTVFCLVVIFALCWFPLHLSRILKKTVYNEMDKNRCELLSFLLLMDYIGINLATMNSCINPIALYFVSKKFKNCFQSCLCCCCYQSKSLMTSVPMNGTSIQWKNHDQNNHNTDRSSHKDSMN

[3] = target: T2, Muscarinic acetylcholine receptor M2 (Homo sapiens, UniProt P08172); assay type: cell membranes, CHO-K1, Membrane; conditions: cho-k1; further: in other assays of this panel Not Active means under 50% inhibition at 10 µM
T2 sequence (P08172 whole entry): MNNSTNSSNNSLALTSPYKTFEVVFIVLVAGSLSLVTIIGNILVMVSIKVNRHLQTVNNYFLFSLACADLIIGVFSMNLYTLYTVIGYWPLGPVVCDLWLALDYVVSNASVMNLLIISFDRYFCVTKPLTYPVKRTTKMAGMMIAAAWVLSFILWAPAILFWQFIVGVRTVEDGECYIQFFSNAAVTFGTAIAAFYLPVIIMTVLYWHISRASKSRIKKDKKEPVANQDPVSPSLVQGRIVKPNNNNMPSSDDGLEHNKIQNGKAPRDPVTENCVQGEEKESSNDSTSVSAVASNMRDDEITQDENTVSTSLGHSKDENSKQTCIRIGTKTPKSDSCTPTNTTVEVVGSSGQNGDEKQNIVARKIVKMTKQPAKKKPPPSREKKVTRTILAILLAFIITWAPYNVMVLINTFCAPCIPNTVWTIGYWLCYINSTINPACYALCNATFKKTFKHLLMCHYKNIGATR

[4] = DRUGMATRIX: Serotonin (5-Hydroxytryptamine) 5-HT3 radioligand binding (ligand: [3H] GR-65630); assay type: cell membranes, Membrane; conditions: hek293; Not Active = under 50% inhibition at 10 µM
[5] = target: Substance-P receptor (Homo sapiens, UniProt P25103); assay type: cell membranes, CHO, Membrane; conditions: cho; further: in other assays of this panel Not Active means under 50% inhibition at 10 µM
Chain of Substance-P receptor (P25103 whole entry): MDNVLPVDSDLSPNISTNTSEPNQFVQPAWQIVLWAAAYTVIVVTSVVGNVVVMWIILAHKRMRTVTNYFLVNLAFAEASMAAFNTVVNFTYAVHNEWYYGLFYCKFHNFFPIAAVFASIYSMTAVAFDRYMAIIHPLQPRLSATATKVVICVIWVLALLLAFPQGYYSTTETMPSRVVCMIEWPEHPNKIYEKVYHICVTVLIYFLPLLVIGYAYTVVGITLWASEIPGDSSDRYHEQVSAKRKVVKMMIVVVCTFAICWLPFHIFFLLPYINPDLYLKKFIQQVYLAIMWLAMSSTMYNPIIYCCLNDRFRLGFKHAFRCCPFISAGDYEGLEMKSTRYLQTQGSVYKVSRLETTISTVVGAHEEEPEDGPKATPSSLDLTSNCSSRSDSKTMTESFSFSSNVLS

[6] = target: Acetylcholinesterase (Homo sapiens, UniProt P22303); assay: DRUGMATRIX: Acetylcholinesterase enzyme inhibition (substrate: acetylthiocholine); assay type: cell-based, HEK293; conditions: Not Active = under 50% inhibition at 10 µM
Chain of Acetylcholinesterase (P22303 whole entry): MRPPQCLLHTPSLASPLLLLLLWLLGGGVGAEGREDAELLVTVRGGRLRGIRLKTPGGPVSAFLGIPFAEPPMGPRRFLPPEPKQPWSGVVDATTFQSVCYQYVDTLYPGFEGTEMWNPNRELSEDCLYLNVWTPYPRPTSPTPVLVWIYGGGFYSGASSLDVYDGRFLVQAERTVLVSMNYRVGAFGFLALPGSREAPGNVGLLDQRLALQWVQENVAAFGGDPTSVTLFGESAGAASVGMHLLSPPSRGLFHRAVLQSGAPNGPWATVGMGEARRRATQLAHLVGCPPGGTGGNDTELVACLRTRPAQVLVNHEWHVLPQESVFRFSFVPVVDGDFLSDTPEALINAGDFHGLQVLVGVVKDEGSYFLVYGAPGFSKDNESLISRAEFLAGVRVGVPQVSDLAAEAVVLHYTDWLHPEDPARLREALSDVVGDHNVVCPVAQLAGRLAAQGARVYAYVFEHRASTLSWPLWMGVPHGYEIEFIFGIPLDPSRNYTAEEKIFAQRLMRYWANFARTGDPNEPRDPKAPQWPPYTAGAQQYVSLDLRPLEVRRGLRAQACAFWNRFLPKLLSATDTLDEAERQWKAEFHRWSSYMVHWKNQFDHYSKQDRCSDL

[7] = DRUGMATRIX: GABAA, Flunitrazepam, Central radioligand binding (ligand: [3H] Flunitrazepam); assay type: cell membranes, Rattus norvegicus, Wistar, Brain, Membrane; conditions: Not Active = under 50% inhibition at 10 µM

Row | SMILES | IC50 [1] | Ki [1] | IC50 [2] | IC50 [3] | IC50 [4] | Ki [4] | IC50 [5] | IC50 ([6]; hek293) | IC50 [7] | Ki [7] | IC50 ([6]; read-out: IC50) [µM]
1 | CC(NC(C)(C)C)C(=O)c1cccc(Cl)c1 (stereo not given) [BUPROPION] | Not Active | Not Active | Not Active | Not Active | Not Active | Not Active | Not Active | Not Active | Not Active | Not Active | –
2 | CN(Cc1ccc(C(C)(C)C)cc1)Cc1cccc2ccccc12 [BUTENAFINE] | Not Active | Not Active | Not Active | Not Active | Not Active | Not Active | Not Active | – | Not Active | Not Active | 6.91
3 | C[C@H](CS)C(=O)N1CCC[C@H]1C(=O)O [CAPTOPRIL] | Not Active | Not Active | Not Active | Not Active | Not Active | Not Active | Not Active | Not Active | Not Active | Not Active | –
4 | Cc1ccc(-c2cc(C(F)(F)F)nn2-c2ccc(S(N)(=O)=O)cc2)cc1 [CELECOXIB] | Not Active | Not Active | Not Active | Not Active | Not Active | Not Active | Not Active | Not Active | Not Active | Not Active | –
5 | O=C(O)CCCc1ccc(N(CCCl)CCCl)cc1 [CHLORAMBUCIL] | Not Active | Not Active | Not Active | Not Active | Not Active | Not Active | Not Active | Not Active | Not Active | Not Active | –
6 | C[C@H](CCC(=O)O)[C@H]1CC[C@H]2[C@@H]3[C@H](O)C[C@@H]4C[C@H](O)CC[C@]4(C)[C@H]3C[C@H](O)[C@]12C [CHOLIC ACID] | Not Active | Not Active | Not Active | Not Active | Not Active | Not Active | Not Active | Not Active | Not Active | Not Active | –
7 | Cc1cc(C2CCCCC2)n(O)c(=O)c1 [CICLOPIROX] | Not Active | Not Active | Not Active | Not Active | Not Active | Not Active | Not Active | Not Active | Not Active | Not Active | –
8 | CC1=C2C(=CO[C@H](C)[C@H]2C)C(O)=C(C(=O)O)C1=O [CITRININ] | Not Active | Not Active | Not Active | Not Active | Not Active | Not Active | Not Active | Not Active | Not Active | Not Active | –
9 | CC(C)(C)NCC(O)c1cc(Cl)c(N)c(Cl)c1 (stereo not given) [CLENBUTEROL] | Not Active | Not Active | Not Active | Not Active | Not Active | Not Active | Not Active | Not Active | Not Active | Not Active | –
10 | CC(C)(Oc1ccc(Cl)cc1)C(=O)O [CLOFIBRIC ACID] | Not Active | Not Active | Not Active | Not Active | Not Active | Not Active | Not Active | Not Active | Not Active | Not Active | –
11 | Clc1cccc(Cl)c1NC1=NCCN1 [CLONIDINE] | Not Active | Not Active | Not Active | Not Active | Not Active | Not Active | Not Active | Not Active | Not Active | Not Active | –
12 | Cc1cc(C(C#N)c2ccc(Cl)cc2)c(Cl)cc1NC(=O)c1cc(I)cc(I)c1O (stereo not given) [CLOSANTEL] | Not Active | Not Active | Not Active | Not Active | Not Active | Not Active | Not Active | – | Not Active | Not Active | 2.95
13 | Cc1onc(-c2ccccc2Cl)c1C(=O)N[C@@H]1C(=O)N2[C@@H]1SC(C)(C)[C@@H]2C(=O)O [CLOXACILLIN] | Not Active | Not Active | Not Active | Not Active | Not Active | Not Active | Not Active | Not Active | Not Active | Not Active | –
14 | CC1CC(OC(=O)C(O)c2ccccc2)CC(C)(C)C1 (stereo not given) [CYCLANDELATE] | Not Active | Not Active | Not Active | Not Active | Not Active | Not Active | Not Active | Not Active | Not Active | Not Active | –
15 | Cc1c2oc3c(C)ccc(C(=O)N[C@@H]4C(=O)N[C@H](C(C)C)C(=O)N5CCC[C@H]5C(=O)N(C)CC(=O)N(C)[C@@H](C(C)C)C(=O)O[C@@H]4C)c3nc-2c(C(=O)N[C@@H]2C(=O)N[C@H](C(C)C)C(=O)N3CCC[C@H]3C(=O)N(C)CC(=O)N(C)[C@@H](C(C)C)C(=O)O[C@@H]2C)c(N)c1=O [DACTINOMYCIN] (I: T[dV]P[Sar][NMeV] / II: T[dV]P[Sar][NMeV]; ester I:1-I:C, II:1-II:C; linker I:N-II:N via Actinocin(1to9)) | Not Active | Not Active | Not Active | Not Active | Not Active | Not Active | Not Active | Not Active | Not Active | Not Active | –
16 | Cc1c(O)c(=O)ccn1C [DEFERIPRONE] | Not Active | Not Active | Not Active | Not Active | Not Active | Not Active | Not Active | Not Active | Not Active | Not Active | –
17 | CNCCCN1c2ccccc2CCc2ccccc21 [DESIPRAMINE] | Not Active | Not Active | Not Active | Not Active | Not Active | Not Active | Not Active | Not Active | Not Active | Not Active | –
18 | O=c1oc2ccccc2c(O)c1Cc1c(O)c2ccccc2oc1=O [DICUMAROL] | Not Active | Not Active | Not Active | Not Active | Not Active | Not Active | Not Active | Not Active | Not Active | Not Active | –
19 | C[C@H]1O[C@@H](O[C@H]2[C@@H](O)C[C@H](O[C@H]3[C@@H](O)C[C@H](O[C@H]4CC[C@@]5(C)[C@H](CC[C@@H]6[C@@H]5C[C@@H](O)[C@]5(C)[C@@H](C7=CC(=O)OC7)CC[C@]65O)C4)O[C@@H]3C)O[C@@H]2C)C[C@H](O)[C@@H]1O [DIGOXIN] | Not Active | Not Active | Not Active | Not Active | Not Active | Not Active | Not Active | Not Active | Not Active | Not Active | –
20 | CC(C)[C@@]1(NC(=O)[C@@H]2C[C@@H]3c4cccc5[nH]cc(c45)C[C@H]3N(C)C2)O[C@@]2(O)[C@@H]3CCCN3C(=O)[C@H](Cc3ccccc3)N2C1=O.CS(=O)(=O)O [DIHYDROERGOCRISTINE MESYLATE] | Not Active | Not Active | Not Active | Not Active | Not Active | Not Active | Not Active | Not Active | Not Active | Not Active | –
